Data as given in ChEMBL document CHEMBL1133287, “Preparation and evaluation of 1,3-diaminocyclopentane-linked dihydropyrimidinone derivatives as selective alpha1a-receptor antagonists” (Bioorg Med Chem Lett, 2000).

How the values were obtained:
Assay type in all cases: cell-based
[1] = biological target: T1, Alpha-1A adrenergic receptor (Homo sapiens, UniProt P35348); assay: Displacement of [125I]HEAT from human Alpha-1A adrenergic receptor stably expressed in CHO cells
T1 sequence (P35348 whole entry): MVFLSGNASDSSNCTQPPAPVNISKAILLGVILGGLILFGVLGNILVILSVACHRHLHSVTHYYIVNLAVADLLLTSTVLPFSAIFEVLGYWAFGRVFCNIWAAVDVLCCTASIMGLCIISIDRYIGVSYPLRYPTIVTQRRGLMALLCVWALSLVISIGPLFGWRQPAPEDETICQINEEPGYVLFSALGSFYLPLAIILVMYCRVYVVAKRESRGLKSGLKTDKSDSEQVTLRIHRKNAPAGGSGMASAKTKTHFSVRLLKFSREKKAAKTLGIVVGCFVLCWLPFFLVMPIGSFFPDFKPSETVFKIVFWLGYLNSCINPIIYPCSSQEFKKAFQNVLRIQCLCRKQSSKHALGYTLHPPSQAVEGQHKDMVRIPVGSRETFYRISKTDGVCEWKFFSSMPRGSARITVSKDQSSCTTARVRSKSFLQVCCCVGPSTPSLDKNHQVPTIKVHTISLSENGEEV

[2] = biological target: T2, Alpha-1D adrenergic receptor (Homo sapiens, UniProt P25100); assay: Displacement of [125I]HEAT from human Alpha-1D adrenergic receptor stably expressed in HL cells
T2 sequence (P25100 whole entry): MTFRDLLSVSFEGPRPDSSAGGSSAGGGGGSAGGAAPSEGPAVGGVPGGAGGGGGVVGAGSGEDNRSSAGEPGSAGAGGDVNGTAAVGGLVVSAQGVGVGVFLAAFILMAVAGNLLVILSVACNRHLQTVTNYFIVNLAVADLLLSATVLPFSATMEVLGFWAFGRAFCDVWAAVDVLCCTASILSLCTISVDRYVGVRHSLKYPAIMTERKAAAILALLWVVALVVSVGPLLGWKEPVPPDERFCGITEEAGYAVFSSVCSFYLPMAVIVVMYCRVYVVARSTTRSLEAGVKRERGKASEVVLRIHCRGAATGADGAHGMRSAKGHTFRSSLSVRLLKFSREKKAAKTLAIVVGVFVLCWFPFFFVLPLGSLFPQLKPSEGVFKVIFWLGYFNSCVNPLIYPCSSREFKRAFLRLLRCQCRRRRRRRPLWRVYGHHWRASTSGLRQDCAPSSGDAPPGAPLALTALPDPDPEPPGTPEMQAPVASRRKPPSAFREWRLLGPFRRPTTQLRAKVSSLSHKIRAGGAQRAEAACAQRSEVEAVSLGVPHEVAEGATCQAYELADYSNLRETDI

[3] = biological target: T3, Alpha-1B adrenergic receptor (Homo sapiens, UniProt P35368); assay: Displacement of [125I]HEAT from human Alpha-1B adrenergic receptor stably expressed in LM cells
T3 sequence (P35368 whole entry): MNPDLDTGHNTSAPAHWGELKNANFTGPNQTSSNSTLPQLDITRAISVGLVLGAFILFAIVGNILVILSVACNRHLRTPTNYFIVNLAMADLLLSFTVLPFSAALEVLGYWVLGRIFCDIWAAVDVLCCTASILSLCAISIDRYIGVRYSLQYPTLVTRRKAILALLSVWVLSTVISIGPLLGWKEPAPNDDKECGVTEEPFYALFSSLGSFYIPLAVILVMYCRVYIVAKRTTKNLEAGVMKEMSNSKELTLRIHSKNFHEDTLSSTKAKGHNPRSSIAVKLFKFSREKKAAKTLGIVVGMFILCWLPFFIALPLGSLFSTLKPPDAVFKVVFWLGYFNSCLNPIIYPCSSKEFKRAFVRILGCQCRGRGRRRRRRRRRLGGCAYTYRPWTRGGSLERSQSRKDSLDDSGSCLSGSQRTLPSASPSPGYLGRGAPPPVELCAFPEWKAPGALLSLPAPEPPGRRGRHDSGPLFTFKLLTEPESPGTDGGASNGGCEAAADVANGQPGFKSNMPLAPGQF

| SMILES | Ki [1] | Ki [2] | Ki [3] |
| --- | --- | --- | --- |
| COCC1=C(C(=O)OC)[C@H](c2ccc(F)c(F)c2)N(C(=O)N[C@@H]2CC[C@H](N3CCC(C#N)(c4ccccc4)CC3)C2)C(=O)N1 | 1 nM | 620 nM | 1900 nM |
| COCC1=C(C(=O)OC)[C@H](c2ccc(F)c(F)c2)N(C(=O)N[C@@H]2CC[C@@H](N3CCN(c4ccccc4C#N)CC3)C2)C(=O)N1 | 0.9 nM | 5.4 nM | 14 nM |
| COCC1=C(C(=O)OC)[C@H](c2ccc(F)c(F)c2)N(C(=O)N[C@@H]2CC[C@H](N3CCN(c4ccccc4C#N)CC3)C2)C(=O)N1 | 1.6 nM | 7.5 nM | 28 nM |
| COCC1=C(C(=O)OC)[C@H](c2ccc(F)c(F)c2)N(C(=O)N[C@H]2CC[C@@H](N3CCC(C#N)(c4ccccc4)CC3)C2)C(=O)N1 | 2.4 nM | 660 nM | 730 nM |
| COCC1=C(C(=O)OC)[C@H](c2ccc(F)c(F)c2)N(C(=O)N[C@H]2CC[C@@H](N3CCN(c4ccccc4C#N)CC3)C2)C(=O)N1 | 0.44 nM | 39 nM | 51 nM |
| COCC1=C(C(=O)OC)[C@H](c2ccc(F)c(F)c2)N(C(=O)N[C@H]2CC[C@H](N3CCC(c4ccccc4C#N)CC3)C2)C(=O)N1 | 2.4 nM | 11 nM | 36 nM |
| COCC1=C(C(=O)OC)[C@H](c2ccc(F)c(F)c2)N(C(=O)N[C@@H]2CC[C@H](N3CCC(c4ccccn4)CC3)C2)C(=O)N1 | 0.4 nM | 320 nM | 1300 nM |
| COCC1=C(C(=O)OC)[C@H](c2ccc(F)c(F)c2)N(C(=O)N[C@H]2CC[C@H](N3CCC(C#N)(c4ccccc4)CC3)C2)C(=O)N1 | 2.3 nM | 95 nM | 120 nM |
| COCC1=C(C(=O)OC)[C@H](c2ccc(F)c(F)c2)N(C(=O)N[C@H]2CC[C@@H](N3CCC(c4ccccc4C#N)CC3)C2)C(=O)N1 | 0.6 nM | 97 nM | 70 nM |
| COCC1=C(C(=O)OC)[C@H](c2ccc(F)c(F)c2)N(C(=O)N[C@@H]2CC[C@H](N3CCC(c4ccccc4C#N)CC3)C2)C(=O)N1 | 0.24 nM | 16 nM | 130 nM |
| COCC1=C(C(=O)OC)[C@H](c2ccc(F)c(F)c2)N(C(=O)N[C@H]2CC[C@H](N3CCN(c4ccccc4C#N)CC3)C2)C(=O)N1 | 4.8 nM | 9 nM | 15 nM |
| COCC1=C(C(=O)OC)[C@H](c2ccc(F)c(F)c2)N(C(=O)N[C@@H]2CC[C@@H](N3CCC(C#N)(c4ccccc4)CC3)C2)C(=O)N1 | 0.37 nM | 660 nM | 210 nM |
| COCC1=C(C(=O)OC)[C@H](c2ccc(F)c(F)c2)N(C(=O)N[C@H]2CC[C@H](N3CCC(c4ccccn4)CC3)C2)C(=O)N1 | 8.3 nM | 170 nM | 130 nM |
| COCC1=C(C(=O)OC)[C@H](c2ccc(F)c(F)c2)N(C(=O)N[C@@H]2CC[C@@H](N3CCC(c4ccccn4)CC3)C2)C(=O)N1 | 0.38 nM | 500 nM | 350 nM |
| COCC1=C(C(=O)OC)[C@H](c2ccc(F)c(F)c2)N(C(=O)N[C@H]2CC[C@@H](N3CCC(c4ccccn4)CC3)C2)C(=O)N1 | 4.7 nM | 550 nM | 290 nM |
| COCC1=C(C(=O)OC)[C@H](c2ccc(F)c(F)c2)N(C(=O)N[C@@H]2CC[C@@H](N3CCC(c4ccccc4C#N)CC3)C2)C(=O)N1 | 0.46 nM | 31 nM | 91 nM |
